Paper PMC11726150, “Pre‐ADMET studies of 5‐(3′,4′‐dihydroxyphenyl)‐γ‐valerolactone, the bioactive intestinal metabolite of proanthocyanidins” (Archiv Der Pharmazie, 2024)

What was measured:
CYP3A4 = target: T1, CYP3A4 (Homo sapiens, UniProt P08684); assay: CYP inhibition assay; assay type: biochemical; settings: read-out: half‐maximal inhibitory concentration (IC50)
T1 construct: purchased
Method: (§1) The inhibitory potential of VL toward the catalytic activity of CYP3A4 and CYP1A2 was investigated through CYP inhibition assays using high‐throughput CYP450 screening kits. Stock solutions of VL (10 mM in DMSO) and specific positive controls for each CYP isoform were serially diluted in methanol and reactions were performed in 96‐well plates according to the supplier's instructions. Briefly, 40 μL (×2.5) of test compound and 50 μL master premix were added to 96‐well plates. Plates were incubated for 10 min at room temperature to allow for sufficient interaction of the test compound and enzyme. Following incubation, 10 μL (×10) of enzyme‐specific substrates were added and plates were vortex‐mixed for 30 s. Further, fluorescence was measured at the specified excitation and emission wavelengths for each substrate as recommended per individual kit protocol. Ketoconazole (0.004, 0.01, 0.03, 0.11, 0.33, and 1 μM) and α‐naphthoflavone (0.004, 0.01, 0.03, 0.11, 0.33, and 1 μM) were used as positive controls for CYP3A4 and CYP1A2, respectively. IC50 values were obtained from concentration‐response curves generated by plotting the percentage of inhibition versus concentration.^[ [46] ^]

CYP1A2 = target: T2, CYP1A2 (Homo sapiens, UniProt P05177); assay: CYP inhibition assay; assay type: biochemical
T2 construct: purchased
T2 sequence (P05177 1-516): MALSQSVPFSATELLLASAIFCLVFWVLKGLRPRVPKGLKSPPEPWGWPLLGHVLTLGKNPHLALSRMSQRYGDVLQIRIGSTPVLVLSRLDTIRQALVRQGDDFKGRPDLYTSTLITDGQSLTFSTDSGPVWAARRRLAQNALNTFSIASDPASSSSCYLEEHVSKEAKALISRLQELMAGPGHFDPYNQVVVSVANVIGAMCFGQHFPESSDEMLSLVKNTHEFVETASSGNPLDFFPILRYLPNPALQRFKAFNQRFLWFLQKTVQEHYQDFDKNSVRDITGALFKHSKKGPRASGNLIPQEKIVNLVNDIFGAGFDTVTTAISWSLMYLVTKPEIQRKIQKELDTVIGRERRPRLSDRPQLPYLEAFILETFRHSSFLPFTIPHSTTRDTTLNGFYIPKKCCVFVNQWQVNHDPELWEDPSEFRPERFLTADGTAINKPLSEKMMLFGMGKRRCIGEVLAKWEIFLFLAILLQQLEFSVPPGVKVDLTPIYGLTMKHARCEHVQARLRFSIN
Method: as §1

Caco2 monolayers = assay: In vitro transport study across 21‐day Caco2 monolayers; assay type: in vitro ADME, human
Method: Caco2 cells between passage numbers 42–50 and MDCK cells between passage numbers 21–26 were used for transport studies; the assay was conducted as reported by Volpe^[ [33] ^] with slight modifications. Transport experiments were performed in 12‐well Transwell plates. Caco2 cells were seeded at a density of 60,000 cells/cm^2 and grown for 21 days, with change of media every 3 days, while MDCK cells were seeded at a density of 70,000 cells/cm^2 and grown for 5 days, changing the medium daily. The physiological and morphological formation of a confluent monolayer was evaluated by measuring the TEER value: Caco2 monolayers became confluent 1 week after seeding with TEER values greater than 450 Ω/cm^2, while MDCK monolayers became confluent 24 h after seeding with TEER values greater than 90 Ω/cm^2. Phenol red and serum‐free DMEM/F12 medium was used as transport buffer. For bidirectional transport, VL (50 μM) and control compound (propranolol and paclitaxel, 10 μM) were added to the apical side to determine apical to basolateral transport (A–B; absorptive direction) and to the basal side to determine basolateral to apical transport (B–A; secretory direction). The volume of the apical and basolateral chambers was 0.5 and 1.5 mL, respectively. Aliquots of 120 μL were taken from the basolateral (for A–B transport) or the apical (for B–A transport) chamber at 30, 60, 90, and 120 min. An equal volume was replaced with a transport buffer at every time point. At the beginning and at the end of the experiment, an aliquot was also taken from the apical or basolateral chamber for analysis of the drug. To determine the integrity of monolayers, TEER values were measured before and after the experiment. In addition, at the end of the experiment cells were collected and lysed to evaluate the compound intake. Briefly, cells were washed twice with cold PBS and 200 µL of cold MeOH was added to detach and lysate the cells; subsequently, cells were collected into lo‐bind Eppendorf and sonicated in ice for 10 min, then centrifuged for 15 min at 4°C at 14,000 rpm (Eppendorf Centrifuge 5430 R). The supernatant was collected and used for further analysis.
The apparent permeability P app (cm/s) of compounds was calculated from the following equation (Equation 1), while P app (cm/s) of the metabolites was calculated from the equation (Equation 2): (1) Papp=dQ/dt×1/C×1/A.
Equation (1) for calculating P app (cm/s) of tested reference compounds. (2) Papp=Metabolic cleareance/A.
Equation (2) for calculating P app (cm/s) of compound metabolites.
with Metabolic cleareance=Rate of metabolism/C and where dQ/dt is the rate of transport, C is the initial concentration in the donor compartment, and A is the surface area of the filter. To quantify the rate of transport, cumulative amounts of test compounds were plotted against time (min).
Efflux ratio was calculated using the following equation (Equation 3)^[ [48] ^]: (3) Efflux ratio=Papp(B−A)/Papp(A−B).

T1 sequence (P08684 whole entry): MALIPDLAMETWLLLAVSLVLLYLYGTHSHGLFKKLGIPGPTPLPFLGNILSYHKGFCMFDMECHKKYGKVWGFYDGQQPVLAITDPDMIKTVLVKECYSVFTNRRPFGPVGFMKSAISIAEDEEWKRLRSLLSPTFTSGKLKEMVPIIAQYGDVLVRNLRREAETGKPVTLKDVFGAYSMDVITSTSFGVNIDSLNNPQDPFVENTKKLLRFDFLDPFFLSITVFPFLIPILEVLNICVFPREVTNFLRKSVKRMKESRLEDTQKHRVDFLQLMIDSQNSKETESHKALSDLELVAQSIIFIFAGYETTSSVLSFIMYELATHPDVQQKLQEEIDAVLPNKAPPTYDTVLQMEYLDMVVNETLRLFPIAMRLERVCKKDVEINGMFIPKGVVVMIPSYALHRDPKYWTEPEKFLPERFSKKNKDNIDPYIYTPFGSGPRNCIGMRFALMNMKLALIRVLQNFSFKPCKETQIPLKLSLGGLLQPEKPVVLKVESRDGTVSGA

`O=C1CCC(Cc2ccc(O)c(O)c2)O1` (stereo not shown) [VL, 5‐(3′,4′‐dihydroxyphenyl)‐γ‐valerolactone] was tested, and the IC50 (CYP3A4) was greater than 25 µM, the “inhibition of CYP1A2” value (CYP1A2) was “no inhibition effect” and the “VL in the donor compartment at the end of the experiment” value (Caco2 monolayers; Caco2, 50 µM, 120 min) was “no longer detectable”. For the same molecule, the “conversion of VL to sulfate” value (Caco2 monolayers; after 30 min) was 100%.
